Experimental findings from PubChem BioAssay (NCI) are described below.

Some test systems named below: SW-620 colon; OVCAR-4 ovarian; MDA-N; HS 578T breast; SNB-19 CNS; IGROV1 ovarian; MDA-MB-231 breast; MCF7 breast; HL-60(TB) leukemia; PC-3 prostate; NCI-H226 lung; SF-295 CNS; KM12 colon; ACHN renal.
What all share (test): NCI anticancer screen, dose series, 48 h

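Cells were grown in 96-well plates and exposed to each compound for 48 hours at five concentrations; endpoints were interpolated linearly between bracketing concentrations, or set to the highest concentration if not reached. TGI denotes the concentration required for complete inhibition of growth.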

With `O=C(CN1c2ccccc2Sc2ccccc21)N1CCNCC1`, the TGI in the assay on SW-620 colon, in the assay on OVCAR-4 ovarian, in the assay on MDA-N, in the assay on HS 578T breast, with SNB-19 CNS and with IGROV1 ovarian was more than 100 µM each time. Further, the TGI with MDA-MB-231 breast, in the assay on MCF7 breast, in the assay on HL-60(TB) leukemia, in the assay with PC-3 prostate, in the assay with NCI-H226 lung and with SF-295 CNS was more than 100 µM in each case. Further, the TGI with KM12 colon and in the assay with ACHN renal was more than 100 µM each time.

`C[C@@]12[C@H]3CC[C@@H]1[C@H](O)C(=O)N2CC3`: the TGI with SW-620 colon, in the assay on OVCAR-4 ovarian, in the assay on MDA-N, with HS 578T breast, in the assay on SNB-19 CNS and with IGROV1 ovarian was more than 100 µM in each case. The TGI in the assay on MDA-MB-231 breast, in the assay on MCF7 breast, in the assay on HL-60(TB) leukemia, in the assay with PC-3 prostate, in the assay with NCI-H226 lung and in the assay on SF-295 CNS was more than 100 µM in each case. The TGI in the assay with KM12 colon and in the assay on ACHN renal was more than 100 µM in each case.

For `CCOP(=O)(OCC)/C(C#N)=C/c1cnc(-c2ccccc2)[nH]1`, the TGI in the assay on SW-620 colon, with OVCAR-4 ovarian, in the assay on MDA-N, with HS 578T breast, in the assay on SNB-19 CNS and in the assay on IGROV1 ovarian was more than 100 µM throughout. Also, the TGI in the assay on MDA-MB-231 breast, in the assay on MCF7 breast, with HL-60(TB) leukemia, in the assay on PC-3 prostate, with NCI-H226 lung and in the assay with SF-295 CNS was more than 100 µM each time. Moreover, the TGI with KM12 colon and with ACHN renal was more than 100 µM throughout.

Consider `COc1ccc(N2C(=O)C3c4[nH]c5ccc(OCc6ccccc6)cc5c4C4CCC(C(C)(C)C)CC4C3C2=O)cc1` (stereo unspecified), for which the TGI with SW-620 colon was more than 100 µM; with OVCAR-4 ovarian it was 59.4 µM; with MDA-N, more than 100 µM; in the assay with HS 578T breast it was more than 100 µM; with SNB-19 CNS, more than 100 µM; in the assay on IGROV1 ovarian, more than 100 µM. In addition, the TGI in the assay with MDA-MB-231 breast, in the assay with MCF7 breast, with HL-60(TB) leukemia, in the assay with PC-3 prostate, in the assay with NCI-H226 lung and with SF-295 CNS was more than 100 µM each time. Also, the TGI in the assay on KM12 colon and in the assay with ACHN renal was more than 100 µM each time.

With `CC(=O)OCC(C)C1=C(O)C(=O)C2(C)C/C=C(/C)CC/C=C(\C)CCC(O)C(C)CCC12` (stereo unspecified), the TGI was 37.8 µM in the assay on SW-620 colon; 37 µM with OVCAR-4 ovarian; 33.6 µM with MDA-N; 52.9 µM in the assay with HS 578T breast; 33.9 µM with SNB-19 CNS; 33 µM in the assay on IGROV1 ovarian. Further, the TGI in the assay with MDA-MB-231 breast amounted to 30.4 µM; in the assay with MCF7 breast it was 44.2 µM; in the assay on HL-60(TB) leukemia, 66.7 µM; in the assay with PC-3 prostate, 38.1 µM; in the assay on NCI-H226 lung it was 33.5 µM; in the assay with SF-295 CNS, 29.9 µM. In addition, the TGI in the assay on KM12 colon was determined as 28.7 µM; with ACHN renal, 30.9 µM.

Take `OC1C2[C@@H](O)CCCN2C[C@@H](O)[C@H]1O` (stereo partly specified): the TGI in the assay on SW-620 colon, with OVCAR-4 ovarian, in the assay with MDA-N, in the assay on HS 578T breast, with SNB-19 CNS and in the assay on IGROV1 ovarian was more than 100 µM each time. Besides, the TGI in the assay on MDA-MB-231 breast, in the assay on MCF7 breast, in the assay with HL-60(TB) leukemia, in the assay on PC-3 prostate, in the assay with NCI-H226 lung and with SF-295 CNS was more than 100 µM throughout. The TGI in the assay on KM12 colon and with ACHN renal was more than 100 µM in each case.

As to `COc1cccc(-c2cc(=O)c3ccccc3o2)c1N`, the TGI in the assay on SW-620 colon, in the assay on OVCAR-4 ovarian, in the assay with MDA-N, in the assay on HS 578T breast, with SNB-19 CNS and with IGROV1 ovarian was more than 100 µM each time. For the same compound, the TGI with MDA-MB-231 breast, with MCF7 breast, in the assay on HL-60(TB) leukemia, in the assay on PC-3 prostate, in the assay with NCI-H226 lung and in the assay with SF-295 CNS was more than 100 µM each time. For the same compound, the TGI with KM12 colon and in the assay with ACHN renal was more than 100 µM throughout.

For the compound `COc1ccc(-c2cc(-c3ccco3)c(C#N)c(=S)n2C2OC(COC(C)=O)C(OC(C)=O)C(OC(C)=O)C2OC(C)=O)cc1` (stereo unspecified), the TGI was found to be 93.2 µM with SW-620 colon; 10 µM with OVCAR-4 ovarian; 19.2 µM in the assay with MDA-N; 21.1 µM in the assay on HS 578T breast; 19.1 µM with SNB-19 CNS; 29.5 µM in the assay with IGROV1 ovarian. In addition, the TGI in the assay with MDA-MB-231 breast was 16.1 µM; in the assay with MCF7 breast, more than 100 µM; in the assay on HL-60(TB) leukemia it was 20.7 µM; in the assay with PC-3 prostate it was 16.5 µM; in the assay on NCI-H226 lung, 16.5 µM; with SF-295 CNS, 4.65 µM. Further, the TGI in the assay with KM12 colon turned out to be 33.4 µM; in the assay with ACHN renal, 19.4 µM.

Turning to `Nc1ccc2nc(-c3ccccn3)c(-c3ccccn3)nc2c1`, the TGI with SW-620 colon, in the assay with OVCAR-4 ovarian, in the assay on MDA-N, in the assay with HS 578T breast, in the assay on SNB-19 CNS and in the assay on IGROV1 ovarian was more than 100 µM throughout. In addition, the TGI with MDA-MB-231 breast, in the assay with MCF7 breast, in the assay on HL-60(TB) leukemia, in the assay on PC-3 prostate, in the assay on NCI-H226 lung and in the assay with SF-295 CNS was more than 100 µM in each case. In addition, the TGI with KM12 colon and in the assay with ACHN renal was more than 100 µM throughout.
